Test results reported in patent US6703049B2, “Angiogenesis inhibitor” (priority 2000, dated 2004).
Where two headings read alike, the source gives them in different places.

How the values were obtained:
[1] = 28-day oral administration toxicity in rat; format: in vivo, Sprague Dawley rat
[2] = test system: bFGF-induced rat corneal neovascularization; assay: Corneal micropocket angiogenesis assay; format: in vivo, Sprague Dawley rat; conditions: oral; for bFGF-induced corneal neovascularization: 50 mg/kg/day for 7 days
Method: To further investigate the antiangiogenic activity of arsenolite in vivo, the inhibitory effect of systematically administered arsenolite on bFGF-induced neovascularization was studied. The corneal micropocket assay was performed by slight modification of a reported procedure (Polverim P J, Bouck N P, Rastinejad F. Assay and purification of naturally occurring inhibitor of angiogenesis, Methods Enzymol. 1991; 198: 440-450). That is, rats were anesthetized with ketamine. A corneal pocket was made by inserting a cataract knife, with the pocket's base 1-1.5 mm from the limbus. Pellets were made by mixing 30 μl of saline containing 2 μg of recombinant bFGF (R&D Systems, Minneapolis, Minn. U.S.A.) with 300 μg of sucralfate (Sigma, St. Louis, Mo., U.S.A.); this suspension was added to 30 μl of 12% (wt/vol) poly (2-hydroxyethyl methacylate) (Sigma, St. Louis, Mo., U.S.A.) in ethanol. Aliquots of this mixture were then pined onto Teflon pegs and allowed to dry producing approximately 17 pellets so that each pellet contains approximately 100 ng of bFGF. A pellet was implanted into corneal micropockets of each eye of an anesthetized male Sprague Dawley rat, followed by a single topical application of erythromycin ointment on the surface of the cornea. The animals were fed daily from the day of implantation by gastric lavage with 50 mg/kg of arsenolite powder for the treatment group, and the same foods and water without arsenolite for the control group. The corneal neovascularization in both eyes of all animals were examined daily with a slit lamp and the angiogenic responses were evaluated on day 7. The area of conical neovascularization was determined by measuring with a reticule the vessel length (L) from the limbus and the number of clock hours (C) of limbus involved as previously reported (D'Amato R I, Loughnan M S, Flynn E, Foulkman J, Thalidomide is an inhibitor of angiogenesis. Proc Natl Acad Sci USA Apr. 26, 1994; 91(9):4082-5). A formula was used to determine the area of a circular band segment: C/12×3.1416[r^2−(rL)^2], where r=5 mm, the measured radius of rat cornea.

BCE cells = assay: Tube formation assay in 3-D fibrin gel culture; format: cell-based, bovine; conditions: 100 nM, bFGF 10 ng/ml, 48 or 96 hours
Method: To investigate the effect of arsenolite on the maturation of angiogenesis, particularly, tubular structure formation of capillary endothelial cells, BCE cells were cultured using three dimensional cultures on the fibrin gel.
Fibrin gels were prepared by following a reported procedure (Bastaki M, Nelli E E, Dell'Era P, Rusnati M, Molinari-Tosatti M P, Parolini S, Auerbach R, Ruco L P, Possati L, Presta M, Basic fibrolast growth factor-induced angiogenic phenotype in mouse endothelium. A study of aortic and microvascular endothelial cell lines. Arterioscler Thromb Vasc Bio March 1997; 17(3): 454-64). Briefly, 2.5 mg/ml of fibrinogen (Calbiochem, San Diego, Calif.) was dissolved in DMEM and cultured BCE cells were added to a final concentration of 10^5 cells/ml, and clotting was then initiated by addition of thrombin (0.5 unit/ml). The mixture was immediately transferred into 24-well plates and allowed to form gel for 5 minutes at 37° C. Following get formation, 0.5 ml of medium with or without bFGF (10 ng/ml) and arsenolite (100 nM) per well were added. After 48 or 96 hours, tube formation was examined under inverted microscopy.

[3] = test system: bovine capillary endothelial (BCE) cells; assay: Chemotaxis assay in modified Boyden chambers (bFGF as chemoattractant); format: cell-based
Method: Chemotaxis assays were performed using modified Boyden chambers, which is equipped with polycarbonate nucleopore membrane (Boyden Chamber, Corning, Coring, N.Y.) described in Journal (Veronique Rigot, Maxime Lehmann, Frederic andre, Noucha Daemi, Jacques Marvaldi and Jose Luis: Integrin ligation and PKC activation are required for migration of colon carcinoma cells. Journal of cell science 111, 3119-3129 (1998)). Pre-coated filters (6.5 mm in diameter, 8 μm pore-size, Matrigel 100 μg/cm^2) were re-hydrated with 250 μl of medium, and 1×10^5 cells in 200 μl medium with or without arsenolite (at concentrations of 10 nM, 20 nM, 50 nM, 100 nM and 200 nM) in triple respectively were seeded into the upper part of each chamber, whereas the lower compartment was filled with 200 μl of serum free DMEM supplemented with 0.1% BSA and with (positive control) or without (negative control) 10 ng/ml bFGF as a chemoattractant. After the cells were incubated at 37° C. for 72 hours, non-migrated cells on the upper surface of the filter were wiped with a cotton swab, and migrated cells on the lower surface of the filter were fixed and stained with 0.125% Cumassie Blue in a mixture of methanol: acetic acid: water at the ratio of 45:10:45 by volume. Chemotaxis was determined by counting cells in five microscopic fields per well, and the extent of migration is expressed as an average number of cells per each microscopic field.

[4] = test system: bovine capillary endothelial (BCE) cells; assay: Endothelial cell proliferation assay (bFGF-stimulated); format: cell-based
Method: Male Sprague-Dawley rats weighing 200 g were used as an experimental animal. Arsenolite (solid As4O6) was dissolved in water until it becomes a 1 mM of stock solution, and kept at the room temperature. Bovine capillary endothelial (BCE) cells were provided by Dr. Tae-Hee Lee (Lee, T. H., Rhim, T., and Kim, S. S. (1998). Prothromb inkringle-2 domain has a growth inhibitory activity against basic fibroblast growth factor-stimulated capillary endothelial cells. J. Biol. Chem 273, 28805-28812). BCE cells were preserved in Dulbecco's modified Eagle's medium (DMEM) supplemented with 10% heat-inactivated bovine calf serum (BCS; Hyclone Laboratories, Logan, Utah) L-glutamine (2 mM), penicillin (110 units/ml), streptomycin (100 μg/ml) and 1.5 ng/ml recombinant human basic fibroblast growth factor (bFGF; R&D Systems, Minneapolis, Minn.). Then, the cells were incubated at 37° C. under 10% CO2 condition. The cells between 10-15 passages were employed in this experiment.
Endothelial proliferation assay was performed as described by Cao et al. (Cao, Y., A., An, S. S. A., Ji, R. W., Davodson, D., Cao, Y., and Llinas, M. (1997) Kringle 5 of plasminogen is a novel inhibitor for endothelial cell growth. J. Biol. Chem. 271, 22924-22928). […] After 72 hours of incubation, the cells were trypsinized and counted using a hemocytometer. […]

[5] = Tolerability of treated rats in the corneal micropocket study; format: in vivo, Sprague Dawley rat; conditions: oral, 50 mg/kg/day for 7 days
Method: To further investigate the antiangiogenic activity of arsenolite in vivo, the inhibitory effect of systematically administered arsenolite on bFGF-induced neovascularization was studied. The corneal micropocket assay was performed by slight modification of a reported procedure (Polverim P J, Bouck N P, Rastinejad F. Assay and purification of naturally occurring inhibitor of angiogenesis, Methods Enzymol. 1991; 198: 440-450). That is, rats were anesthetized with ketamine. A corneal pocket was made by inserting a cataract knife, with the pocket's base 1-1.5 mm from the limbus. […] The corneal neovascularization in both eyes of all animals were examined daily with a slit lamp and the angiogenic responses were evaluated on day 7. The area of conical neovascularization was determined by measuring with a reticule the vessel length (L) from the limbus and the number of clock hours (C) of limbus involved as previously reported (D'Amato R I, Loughnan M S, Flynn E, Foulkman J, Thalidomide is an inhibitor of angiogenesis. Proc Natl Acad Sci USA Apr. 26, 1994; 91(9):4082-5). A formula was used to determine the area of a circular band segment: C/12×3.1416[r^2−(rL)^2], where r=5 mm, the measured radius of rat cornea. […]

[6] = oral administration; cited from earlier work

Compound	side effect ([1]; oral 1 mg/kg for 28 days)	side effect ([1]; oral 10 mg/kg for 28 days)	histological alterations in kidney ([1]; oral 100 mg/kg for 28 days)	side effect on gastrointestinal and liver ([1]; oral 100 mg/kg for 28 days)	bFGF-induced corneal neovascularization [2]	bFGF-induced corneal neovascularization ([2]; listed as angiogenesis inhibitor of the present invention)	density of corneal vessels compared with control animals ([2]; 50 mg/kg/day, day 7)	inhibition of clock hours of corneal circumferential neovascularization ([2]; 50 mg/kg/day, day 7)	inhibition of vessel length of corneal neovascularization ([2]; 50 mg/kg/day, day 7)	suppression of area of neovascularization ([2]; 50 mg/kg/day, day 7, area calculated from length and clock hours)	generation of tubes by BCE cells (BCE cells)	IC50 ([3]; 10 ng/ml bFGF, 72 hours, read-out: inhibition of bFGF-induced invasiveness (chemotaxis), IC50) [nM]	inhibition of bFGF-induced invasiveness (chemotaxis) ([3]; at 100 nM, 10 ng/ml bFGF, 72 hours) [%]	cell morphological changes associated with apoptotic endothelial cells (detachment, rounding, fragmentation) ([3]; chemotaxis assay, 10 to 200 nM)	IC50 ([4]; 3 ng/ml bFGF, 72 hours incubation, cell count, read-out: inhibition of BCE cell proliferation, IC50) [nM]	cell morphological changes associated with apoptotic endothelial cells (detachment, rounding, fragmentation) ([4]; after a 3-day incubation, 10 to 200 nM)	weight loss or unusual behavior over the course of the treatment [5]	side effect on gastrointestinal and liver [6]
O1[As]2O[As]3O[As]1O[As](O2)O3 [arsenolite, Tetraarsenic oxide]	none of side effect was observed	none of side effect was observed	only minor histological alterations was observed in kidney	no side affect on gastrointestinal and liver	significantly inhibited	noticeably suppressed	markedly reduced	more than 60%	more than 60%	approximately 90%	reduced	48	83.4	none of distinct cell morphological changes	99	No distinct cell morphological changes	did not experience weight loss or unusual behavior	–
arsenic trioxide	–	–	–	–	–	–	–	–	–	–	–	–	–	–	–	–	–	caused serious side effect on gastrointestinal and liver
